Results published in BigSolDB 2.1.

[NH3+]O.[NH3+]O.[O-]n1nnnc1-c1nnnn1[O-]
solubility (mole fraction)
Details	in DMF	in DMSO	in ethanol	in ethyl acetate	in formic acid	in toluene	in water
293.15 K	6.38e-05	0.00122	3.87e-06	1.93e-06	0.000213	1.85e-05	2.42e-05
298.15 K	7.18e-05	0.00131	4.82e-06	2.16e-06	0.000231	2.2e-05	2.83e-05
303.15 K	9.56e-05	0.00149	5.92e-06	2.37e-06	0.00025	2.44e-05	3.29e-05
308.15 K	0.000142	0.00159	7.19e-06	2.72e-06	0.00028	2.6e-05	3.59e-05
313.15 K	0.000183	0.00179	8.16e-06	3.16e-06	0.000302	2.89e-05	4.17e-05
318.15 K	0.000225	0.00191	9.64e-06	3.56e-06	0.000347	3.24e-05	4.84e-05
323.15 K	0.000269	0.00211	1.21e-05	3.92e-06	0.000392	3.69e-05	5.5e-05
